Measured values published in patent US6737383B1, “Herbicidal oxadiazolidines” (priority 1999, dated 2004).

Columns and labels:
[1] = tested on: bedstraw; experiment: Test B pre/postemergence bedstraw; assay type: in vivo, Galium aparine; conditions: Preemergence; for Bedstraw plant response rating: scale of 0 to 10 where 0 is no effect and 10 is complete control
Procedure, shortened: (§1)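 Herbicidal effect was estimated by eye on a ten-point control scale after plants spent twelve to sixteen days in a greenhouse following soil or foliar treatment. Foliar sprays targeted plants at one to four leaves; all doses were formulated in a non-phytotoxic solvent with surfactant.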

[2] = tested on: blackgrass; experiment: Test B pre/postemergence blackgrass; assay type: in vivo, Alopecurus myosuroides
Procedure, shortened: as §1

[3] = tested on: surinam grass; experiment: Test B pre/postemergence surinam grass; assay type: in vivo, Brachiaria decumbens
Procedure, shortened: as §1

[4] = tested on: cocklebur; experiment: Test B pre/postemergence cocklebur; assay type: in vivo, Xanthium strumarium; conditions: for Cocklebur plant response rating: scale of 0 to 10 where 0 is no effect and 10 is complete control
Procedure, shortened: as §1

[5] = tested on: corn; experiment: Test B pre/postemergence corn; assay type: in vivo, Zea mays; conditions: for Corn plant response rating: scale of 0 to 10 where 0 is no effect and 10 is complete control
Procedure, shortened: as §1

[6] = tested on: crabgrass; experiment: Test B pre/postemergence crabgrass; assay type: in vivo, Digitaria sanguinalis; conditions: for Crabgrass plant response rating: scale of 0 to 10 where 0 is no effect and 10 is complete control
Procedure, shortened: as §1

[7] = tested on: rape; experiment: Test B pre/postemergence rape; assay type: in vivo, Brassica napus; conditions: for Rape plant response rating: scale of 0 to 10 where 0 is no effect and 10 is complete control
Procedure, shortened: as §1

[8] = tested on: soybean; experiment: Test B pre/postemergence soybean; assay type: in vivo, Glycine max; conditions: for Soybean plant response rating: scale of 0 to 10 where 0 is no effect and 10 is complete control
Procedure, shortened: as §1

[9] = tested on: sugar beet; experiment: Test B pre/postemergence sugar beet; assay type: in vivo, Beta vulgaris; conditions: for Sugarbeets plant response rating: scale of 0 to 10 where 0 is no effect and 10 is complete control
Procedure, shortened: as §1

[10] = tested on: velvetleaf; experiment: Test B pre/postemergence velvetleaf; assay type: in vivo, Abutilon theophrasti; conditions: for Velvetleaf plant response rating: scale of 0 to 10 where 0 is no effect and 10 is complete control
Procedure, shortened: as §1

[11] = tested on: wheat; experiment: Test B pre/postemergence wheat; assay type: in vivo, Triticum aestivum; conditions: for Wheat plant response rating: scale of 0 to 10 where 0 is no effect and 10 is complete control
Procedure, shortened: as §1

[12] = tested on: wild oat; experiment: Test B pre/postemergence wild oat; assay type: in vivo, Avena fatua; conditions: for Wild oats plant response rating: scale of 0 to 10 where 0 is no effect and 10 is complete control
Procedure, shortened: as §1

[13] = tested on: purple nutsedge; experiment: Test B pre/postemergence purple nutsedge; assay type: in vivo, Cyperus rotundus; conditions: for Nutsedge plant response rating: scale of 0 to 10 where 0 is no effect and 10 is complete control
Procedure, shortened: as §1

[14] = tested on: rice; experiment: Test B flood test rice; assay type: in vivo, Oryza sativa
Procedure, shortened: (§2)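 Flood test on plants grown to the 2-leaf stage; treated plants kept in greenhouse twelve to sixteen days, then visually rated against controls on a 0 (no effect) to 10 (complete control) scale.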

[15] = tested on: smallflower flatsedge; experiment: Test B flood test smallflower flatsedge; assay type: in vivo, Cyperus difformis
Procedure, shortened: as §2

[16] = tested on: duck salad; experiment: Test B flood test duck salad; assay type: in vivo, Heteranthera limosa
Procedure, shortened: as §2

[17] = tested on: bamyardgrass; experiment: Test B flood test barnyardgrass; assay type: in vivo, Echinochloa crus-galli
Procedure, shortened: as §2

[18] = Postemergence, Rate 125 g/ha, scale 0 to 10, 0 is no effect, 10 is complete control
[19] = Preemergence, Rate 62 g/ha, scale 0 to 10 (0 no effect, 10 complete control)
[20] = Preemergence, Rate 250 g/ha, scale of 0 to 10 where 0 is no effect and 10 is complete control
[21] = Preemergence, Rate 500 g/ha, scale of 0 to 10 where 0 is no effect and 10 is complete control
[22] = Rate 62 g/ha, Postemergence, scale of 0 to 10 where 0 is no effect and 10 is complete control
[23] = Rate 250 g/ha, Postemergence, scale of 0 to 10 where 0 is no effect and 10 is complete control
[24] = Rate 500 g/ha, Postemergence, scale 0 to 10, 0 no effect, 10 complete control
[25] = Postemergence (flood test), Rate 125 g/ha, scale 0 to 10, 0 is no effect, 10 is complete control
[26] = Rate 62 g/ha, Postemergence (flood test species), scale of 0 to 10 where 0 is no effect and 10 is complete control
[27] = Rate 62 g/ha, flood test species, Pre-emergence, visual evaluation after twelve to sixteen days
[28] = Rate 125 g/ha, Pre-emergence, flood test species, scale 0 to 10 where 0 is no effect and 10 is complete control
[29] = Rate 250 g/ha, Pre-emergence, flood-test species, scale 0 to 10, 0 is no effect, 10 is complete control
[30] = Rate 500 g/ha, listed under Postemergence (flood test species), scale 0 to 10, 0 no effect, 10 complete control
[31] = Rate 500 g/ha, Pre-emergence, flood test species, scale 0 to 10 (0 no effect, 10 complete control)

## CC(C)N(C(=O)n1oc(=O)n(C2CCC2)c1=O)c1ccc(F)cc1 [Compound 350]
[1]; Rate 62 g/ha, scale 0 to 10 (0 no effect, 10 complete control)
  Plant response rating, Bedstraw: 10
[1]; Rate 125 g/ha
  Bedstraw plant response rating (0 to 10 scale): 10
[1]; Rate 250 g/ha
  Bedstraw plant response rating: 10
[1]; Rate 500 g/ha
  Bedstraw plant response rating: 10
[2]; [18]
  Plant response rating, Blackgrass: 4
[2]; [19]
  Plant response rating, Blackgrass: 4
[2]; Preemergence, Rate 125 g/ha
  Blackgrass plant response rating (0 to 10 scale): 5
[2]; [20]
  Blackgrass plant response rating: 8
[2]; [21]
  Blackgrass plant response rating: 8
[2]; [22]
  Blackgrass plant response rating: 4
[2]; [23]
  Plant response rating, Blackgrass: 7
[2]; [24]
  Plant response rating, Blackgrass: 7
[3]; [18]
  Plant response rating, B. signalgrass: 0
[3]; [19]
  Plant response rating, B. signalgrass: 0
[3]; Preemergence, Rate 125 g/ha
  B. signalgrass plant response rating (0 to 10 scale, 0 is no effect, 10 is complete control): 0
[3]; [20]
  B. signalgrass plant response rating: 2
[3]; [21]
  B. signalgrass plant response rating: 4
[3]; [22]
  B. signalgrass plant response rating: 0
[3]; [23]
  Plant response rating, B. signalgrass: 0
[3]; [24]
  Plant response rating, B. signalgrass: 4
[4]; [18]
  Plant response rating, Cocklebur: 0
[4]; [19]
  Plant response rating, Cocklebur: 0
[4]; Preemergence, Rate 125 g/ha
  Cocklebur plant response rating (0 to 10 scale): 0
[4]; Preemergence, Rate 250 g/ha
  Cocklebur plant response rating: 0
[4]; Preemergence, Rate 500 g/ha
  Cocklebur plant response rating: 0
[4]; Rate 62 g/ha, Postemergence
  Cocklebur plant response rating: 0
[4]; [24]
  Plant response rating, Cocklebur: 3
[5]; [18]
  Plant response rating, Corn: 0
[5]; [19]
  Plant response rating, Corn: 0
[5]; Preemergence, Rate 125 g/ha
  Corn plant response rating (0 to 10 scale): 0
[5]; Preemergence, Rate 250 g/ha
  Corn plant response rating: 0
[5]; Preemergence, Rate 500 g/ha
  Corn plant response rating: 7
[5]; Rate 62 g/ha, Postemergence
  Corn plant response rating: 0
[5]; [24]
  Plant response rating, Corn: 0
[6]; [18]
  Plant response rating, Crabgrass: 1
[6]; [19]
  Plant response rating, Crabgrass: 8
[6]; Preemergence, Rate 125 g/ha
  Crabgrass plant response rating (0 to 10 scale): 8
[6]; Preemergence, Rate 250 g/ha
  Crabgrass plant response rating: 10
[6]; Preemergence, Rate 500 g/ha
  Crabgrass plant response rating: 10
[6]; Rate 62 g/ha, Postemergence
  Crabgrass plant response rating: 1
[6]; [24]
  Plant response rating, Crabgrass: 7
[7]; [18]
  Plant response rating, Rape: 0
[7]; [19]
  Plant response rating, Rape: 0
[7]; Preemergence, Rate 125 g/ha
  Rape plant response rating (0 to 10 scale): 0
[7]; Preemergence, Rate 250 g/ha
  Rape plant response rating: 7
[7]; Preemergence, Rate 500 g/ha
  Rape plant response rating: 10
[7]; Rate 62 g/ha, Postemergence
  Rape plant response rating: 0
[7]; [24]
  Plant response rating, Rape: 2
[8]; [18]
  Plant response rating, Soybean: 1
[8]; [19]
  Plant response rating, Soybean: 0
[8]; Preemergence, Rate 125 g/ha
  Soybean plant response rating (0 to 10 scale): 0
[8]; Preemergence, Rate 250 g/ha
  Soybean plant response rating: 0
[8]; Preemergence, Rate 500 g/ha
  Soybean plant response rating: 2
[8]; Rate 62 g/ha, Postemergence
  Soybean plant response rating: 1
[8]; [24]
  Plant response rating, Soybean: 3
[9]; [18]
  Plant response rating, Sugarbeets: 0
[9]; [19]
  Plant response rating, Sugarbeets: 2
[9]; Preemergence, Rate 125 g/ha
  Sugarbeets plant response rating (0 to 10 scale): 2
[9]; Preemergence, Rate 250 g/ha
  Sugarbeets plant response rating: 4
[9]; Preemergence, Rate 500 g/ha
  Sugarbeets plant response rating: 9
[9]; Rate 62 g/ha, Postemergence
  Sugarbeets plant response rating: 0
[9]; [24]
  Plant response rating, Sugarbeets: 0
[10]; [18]
  Plant response rating, Velvetleaf: 0
[10]; [19]
  Plant response rating, Velvetleaf: 2
[10]; Preemergence, Rate 125 g/ha
  Velvetleaf plant response rating (0 to 10 scale): 2
[10]; Preemergence, Rate 250 g/ha
  Velvetleaf plant response rating: 4
[10]; Preemergence, Rate 500 g/ha
  Velvetleaf plant response rating: 6
[10]; Rate 62 g/ha, Postemergence
  Velvetleaf plant response rating: 0
[10]; [24]
  Plant response rating, Velvetleaf: 6
[11]; [18]
  Plant response rating, Wheat: 0
[11]; [19]
  Plant response rating, Wheat: 0
[11]; Preemergence, Rate 125 g/ha
  Wheat plant response rating (0 to 10 scale): 0
[11]; Preemergence, Rate 250 g/ha
  Wheat plant response rating: 2
[11]; Preemergence, Rate 500 g/ha
  Wheat plant response rating: 3
[11]; Rate 62 g/ha, Postemergence
  Wheat plant response rating: 0
[11]; [24]
  Plant response rating, Wheat: 2
[12]; [18]
  Plant response rating, Wild oats: 0
[12]; [19]
  Plant response rating, Wild oats: 0
[12]; Preemergence, Rate 125 g/ha
  Wild oats plant response rating (0 to 10 scale): 3
[12]; Preemergence, Rate 250 g/ha
  Wild oats plant response rating: 5
[12]; Preemergence, Rate 500 g/ha
  Wild oats plant response rating: 7
[12]; Rate 62 g/ha, Postemergence
  Wild oats plant response rating: 0
[12]; [24]
  Plant response rating, Wild oats: 5
[13]; [18]
  Plant response rating, Nutsedge: 0
[13]; Preemergence, Rate 125 g/ha
  Nutsedge plant response rating (0 to 10 scale): 0
[13]; Preemergence, Rate 250 g/ha
  Nutsedge plant response rating: 0
[13]; Preemergence, Rate 500 g/ha
  Nutsedge plant response rating: 10
[13]; Rate 62 g/ha, Postemergence
  Nutsedge plant response rating: 0
[13]; [24]
  Plant response rating, Nutsedge: 0
[14]; [25]
  Plant response rating, Rice: 0
[14]; [26]
  Rice plant response rating: 0
[14]; [27]
  Plant response rating, Rice (0 to 10 scale, 0 is no effect, 10 is complete control): 0
[14]; [28]
  Rice plant response rating: 0
[14]; [29]
  Rice plant response rating: 0
[14]; [30]
  Plant response rating, Rice: 0
[14]; [31]
  Rice plant response rating: 0
[15]; [25]
  Plant response rating, S. Flatsedge: 2
[15]; [26]
  S. Flatsedge plant response rating: 0
[15]; [27]
  Plant response rating, S. Flatsedge (0 to 10 scale, 0 is no effect, 10 is complete control): 0
[15]; [28]
  S. Flatsedge plant response rating: 0
[15]; [29]
  S. Flatsedge plant response rating: 0
[15]; [30]
  Plant response rating, S. Flatsedge: 8
[15]; [31]
  S. Flatsedge plant response rating: 0
[16]; [25]
  Plant response rating, Ducksalad: 2
[16]; [26]
  Ducksalad plant response rating: 0
[16]; [27]
  Plant response rating, Ducksalad (0 to 10 scale, 0 is no effect, 10 is complete control): 0
[16]; [28]
  Ducksalad plant response rating: 0
[16]; [29]
  Ducksalad plant response rating: 0
[16]; [30]
  Plant response rating, Ducksalad: 3
[16]; [31]
  Ducksalad plant response rating: 0
[17]; [25]
  Plant response rating, Barnyardgrass: 0
[17]; [26]
  Barnyardgrass plant response rating: 0
[17]; [27]
  Plant response rating, Barnyardgrass (0 to 10 scale, 0 is no effect, 10 is complete control): 0
[17]; [28]
  Barnyardgrass plant response rating: 0
[17]; Rate 250 g/ha, Postemergence (flood test species), scale of 0 to 10 where 0 is no effect and 10 is complete control
  Plant response rating, Barnyardgrass: 3
[17]; [29]
  Barnyardgrass plant response rating: 0
[17]; [30]
  Plant response rating, Barnyardgrass: 5
[17]; [31]
  Barnyardgrass plant response rating: 0
